Data published in publication PMC4146677 (Bioorganic & medicinal chemistry letters, 2014).
In brackets after ≈: the same amount, converted by molar mass. Several values for one entry are separate records, joined by “and”; a condition that tells them apart may be missing. Equal entries are not always repeated. Entries after “also recorded” stand apart in the source; their conditions may differ. Where two headings read alike, the source gives them in different places. Marks after values point to notes of the source that are not given here.

What was measured:
PfFabZ [1] = biological target: T1, PfFabZ (Plasmodium falciparum, UniProt Q965D7); settings: values marked **, ref [3] (table footnote), [5], cited from earlier work
T1 sequence (Q965D7 19-230): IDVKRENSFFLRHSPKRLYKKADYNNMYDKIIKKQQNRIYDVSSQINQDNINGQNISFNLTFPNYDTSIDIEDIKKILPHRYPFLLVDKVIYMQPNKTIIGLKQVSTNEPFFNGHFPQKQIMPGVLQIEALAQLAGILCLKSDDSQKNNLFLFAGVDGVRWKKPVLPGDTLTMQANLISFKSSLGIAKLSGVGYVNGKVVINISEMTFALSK

[2] = system: LS forms of Plasmodium yoelii; settings: ref [5], cited from earlier work
PfFabI [3] = biological target: T2, PfFabI (Plasmodium falciparum, UniProt Q9BH77); settings: values marked **, ref [3] (table footnote), [5], cited from earlier work
T2 sequence (Q9BH77 22-432): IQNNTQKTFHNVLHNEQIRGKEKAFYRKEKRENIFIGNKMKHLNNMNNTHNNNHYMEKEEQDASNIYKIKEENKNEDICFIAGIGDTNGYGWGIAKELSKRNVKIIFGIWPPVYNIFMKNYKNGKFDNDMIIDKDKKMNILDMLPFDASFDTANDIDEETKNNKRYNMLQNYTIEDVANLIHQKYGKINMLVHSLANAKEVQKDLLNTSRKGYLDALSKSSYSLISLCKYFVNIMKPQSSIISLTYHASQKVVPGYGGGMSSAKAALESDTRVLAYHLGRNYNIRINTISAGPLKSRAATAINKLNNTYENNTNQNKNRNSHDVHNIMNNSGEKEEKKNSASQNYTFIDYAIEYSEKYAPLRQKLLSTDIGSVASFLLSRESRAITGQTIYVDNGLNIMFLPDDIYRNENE

[4] = biological target: Leishmania topoisomerase IB enzyme; settings: read-out: EC50 Leishmania topoisomerase IB; ref [4]; cited from earlier work
Leishmania donovani = settings: read-out: EC50 against Leishmania donovani; ref [4]; cited from earlier work
BS P. falciparum K1 [5] = settings: K1 strain; values marked **; ref [3] (table footnote), [5]; cited from earlier work
zebrafish larvae liver = assay: Hepatotoxicity in zebrafish larvae; assay type: in vivo, zebrafish (Danio rerio); settings: 6 dpf; for Hepatotoxic effects / liver phenotype at the MTC: 2-HDA 0.8 μM, 2-ODA 1 μM, 2-TDA 1.2 μM
[6] = ref [6]; cited from earlier work
zebrafish larvae = assay: General toxicity in zebrafish larvae; settings: treated 3 to 6 dpf, MTC at 6 dpf
PfFabG [7] = biological target: T3, PfFabG (Plasmodium falciparum, UniProt Q8I2S7); settings: values marked **; ref [3] (table footnote), [5]; cited from earlier work
L6 cells = settings: cited from earlier work
LS P. berghei = assay: Liver stage P. berghei infection of Huh7 hepatoma cells; assay type: cell-based, Plasmodium berghei; settings: for Effect on P. berghei infection of Huh7 cells: 48 h treatment, Fig. 1
Huh7 cells = assay: Host cell viability of Huh7 cells; assay type: cell-based, human; settings: Alamar Blue; up to the highest test concentrations
PfFabG [8] = biological target: T3, PfFabG; assay: PfFabG enzyme inhibition assay; assay type: biochemical, P. falciparum
PfFabZ [9] = biological target: T1, PfFabZ; assay: PfFabZ enzyme inhibition assay; assay type: biochemical, P. falciparum
PfFabI [10] = biological target: T2, PfFabI; assay: PfFabI enzyme inhibition assay; assay type: biochemical, P. falciparum
[11] = biological target: PfFAS-II enzymes PfFabI, PfFabZ, PfFabG; assay: PfFAS-II enzyme inhibition, range over PfFabI, PfFabZ and PfFabG; assay type: biochemical, P. falciparum; settings: range over the three enzymes
BS P. falciparum K1 [12] = assay: Blood stage antiplasmodial activity, 3H-hypoxanthine method; assay type: cell-based; settings: Plasmodium falciparum, K1, read-out: IC50 BS P. falciparum
[13] = rat skeletal myoblasts, values marked *, ref [2]

2-hexadecynoic acid [2-HDA]
IC50 PfFabZ (PfFabZ [1]): 0.58** μg/ml
IC50 LS P. yoelii ([2]; assessed by flow cytometry): 15.3 µg/mL
IC50 LS P. yoelii ([2]; assessed by immunofluorescence activity): 4.88 µg/mL
IC50 PfFabI (PfFabI [3]): 0.38** μg/ml
EC50 [4]: 28 µM
EC50 (Leishmania donovani): 17.8 µM
IC50 BS P. falciparum (BS P. falciparum K1 [5]): 10.4** μg/ml
Hepatotoxic effects / liver phenotype at the MTC (zebrafish larvae liver; 3 days of exposure): non-hepatotoxic; also recorded: normal liver
Critical micelle concentration (CMC) [6]: > 90 µg/mL
Maximum-tolerated concentration (MTC) (zebrafish larvae): 0.20 μg/ml and 0.8 μM
IC50 PfFabG (PfFabG [7]): 3.5** μg/ml
IC50 L6 cell toxicity (L6 cells): 85.9** μg/ml

CCCCCCCCCCCCCCCC#CC(=O)O [2-ODA, 2-octadecynoic acid]
EC50 [4]: 5 µM
EC50 (Leishmania donovani): 11 µM
Effect on P. berghei infection of Huh7 cells (LS P. berghei): greatly impaired infection
Effect on cell viability of Huh7 host cells (Huh7 cells): no apparent effects on cell viability
IC50 PfFabG (PfFabG [8]): 0.80 µg/mL (≈ 2.85 µM)
IC50 PfFabZ (PfFabZ [9]): 0.28 µg/mL (≈ 0.998 µM)
Hepatotoxic effects / liver phenotype at the MTC (zebrafish larvae liver; 3 days of exposure): non-hepatotoxic; also recorded: normal liver
Critical micelle concentration (CMC) [6]: 50 µg/mL
IC50 PfFabI (PfFabI [10]): 0.30 µg/mL (≈ 1.07 µM)
IC50 values against PfFabI, PfFabZ and PfFabG (range) [11]: 0.28 to 0.80 µg/mL
IC50 L6 cell toxicity (L6 cells; [13]): 5.6* μg/ml

CCCCCCCCCCCC#CC(=O)O [2-TDA, 2-tetradecynoic acid]
EC50 [4]: 68 µM
Effect on P. berghei infection of Huh7 cells (LS P. berghei): greatly impaired infection
Effect on cell viability of Huh7 host cells (Huh7 cells): no apparent effects on cell viability
IC50 PfFabG (PfFabG [8]): 5.5 µg/mL (≈ 24.5 µM)
IC50 PfFabZ (PfFabZ [9]): 3.5 µg/mL (≈ 15.6 µM)
IC50 (BS P. falciparum K1 [12]): 27.3 µg/mL (≈ 122 µM)
Hepatotoxic effects / liver phenotype at the MTC (zebrafish larvae liver; 3 days of exposure): induced liver toxicity; also recorded: round-shaped liver with reduced fluorescence
Hepatotoxic effects / liver phenotype (zebrafish larvae liver; 1.0 μM = 0.22 μg/ml, below the MTC): did not induce any apparent signs of liver toxicity
Maximum-tolerated concentration (MTC) (zebrafish larvae): 0.27 µg/mL
IC50 L6 cell toxicity (L6 cells; [13]): 9.2* μg/ml

CCN(CC)CCCC(C)Nc1ccnc2cc(Cl)ccc12 (stereo not drawn) [Chloroquine, reference compound]
IC50 (BS P. falciparum K1 [12]): 0.117 µg/mL (≈ 0.366 µM)

CCCCCCCCCCCCCCCC(=O)O [PA, palmitic acid, reference compound]
IC50 (PfFabZ [1]; read-out: IC50 PfFabZ): > 390 µM
IC50 (PfFabI [3]; read-out: IC50 PfFabI): > 390 µM
IC50 BS P. falciparum (BS P. falciparum K1 [5]): 3.8** μg/ml
LS activity at the highest test concentration (LS P. berghei; 25 μg/ml): devoid of any LS activity
Hepatotoxic effects / liver phenotype (zebrafish larvae liver; 3 days of exposure, 700 μM = 179.2 μg/ml): no hepatotoxic effects; also recorded: normal liver
IC50 L6 cell toxicity (L6 cells): 52.7** μg/ml

COc1cc([C@@H]2c3cc4c(cc3[C@H](O)[C@H]3COC(=O)[C@H]23)OCO4)cc(OC)c1OC [Podophyllotoxin, reference compound]
IC50 L6 cell toxicity (L6 cells; [13]): 0.02^e,* μg/ml

CC(=O)Nc1ccc(O)cc1 [paracetamol, reference compound]
Hepatotoxic effects / liver phenotype (zebrafish larvae liver; 3 days of exposure, 300 μM, positive control): smaller-sized liver
